Source: patent US20250360212A1, “COMPOSITIONS AND USES OF PSCA TARGETED CHIMERIC ANTIGEN RECEPTOR MODIFIED CELLS EXPRESSING IL-15” (City of Hope, priority 2023, published 2025)

How the values were obtained:
[1] = tested on: MIA Paca-2 GR; assay: Effect of gemcitabine on gemcitabine-resistant cell lines (RTCA); format: cell-based, human; conditions: 1.6 uM and 3.2 uM; without medium change or with medium change at 1 h or 3 h; compared to parental cell line
Description: (§1) Gemcitabine-based therapy is currently the standard first-line therapy for patients with advanced PDAC. However, tumor recurrence after gemcitabine treatment may lead to short patient survival (Jia Y, Gu D, Wan J, et al. The role of GLI-SOX2 signaling axis for gemcitabine resistance in pancreatic cancer. Oncogene 2019; 38 (10): 1764-77. doi: 10.1038/s41388-018-0553-0 [published Online First: 2018 Oct. 31]). Therefore, it is critical to verify whether […] cells are effective in killing gemcitabine-resistant tumors in vitro and in vivo. In this case, we established two gemcitabine-resistant (GR) cell lines (Capan-1 GR and MIA Paca-2 GR) by exposing parental Capan-1 and MIA Paca-2 cells to increasing concentrations of gemcitabine for 9 months. […] Compared to the parental cell lines, Capan-1 GR and MIA Paca-2 GR were not killed by gemcitabine at concentrations of 1.6 uM and 3.2 uM, either without medium change or with medium change at 1 h or 3 h (FIG. 6B, FIGS. 10 and 11). We explored the anti-PC effect of […] cells targeting Capan-1 GR and MIA Paca-2 GR cells in vitro. […] We also measured the levels of CD25, CD69, CD107a, TNF-α, and IFN-γ expression of […] cells after co-incubation with GR cells and the parental cells. […] Next, we evaluated the therapeutic effect of […] cells against Capan-1 GR cells in vivo. The parental Capan-1 cells were injected as control.

[2] = tested on: Capan-1 GR; assay: as above; format: cell-based, human; conditions: 1.6 uM and 3.2 uM; without medium change or with medium change at 1 h or 3 h; compared to parental cell line
Description: as §1

With `Nc1ccn([C@@H]2O[C@H](CO)[C@@H](O)C2(F)F)c(=O)n1` [gemcitabine, 2′,2′-difluorodeoxycytidine] the “killing by gemcitabine (RTCA)” value [1] was “not killed” and the “killing by gemcitabine (RTCA)” value [2] was “not killed”.
